Results as given in patent US11337921B2, “Multi-use torasemide composition” (VETOQUINOL SA, priority 2018, dated 2022).

Assay: Solubility of torasemide as a function of pH
Type: physicochemical
Conditions: pH between about 2 and 7 (FIG. 1)
Source text: Moreover, the solubility of torasemide depends on the pH of the solution. The stability of torasemide in solution is, moreover, a function of the additives and excipients used in the composition. Thus, torasemide is insoluble at a pH between about 2 and 7 (FIG. 1).

Solubility of torasemide: insoluble
Compound: Cc1cccc(Nc2ccncc2S(=O)(=O)NC(=O)NC(C)C)c1 [torasemide, 1-isopropyl-3-[(4-m-toluidino-3-pyridyl)sulfonyl]urea]
